The target of test [1] is benzodiazepine receptor. Description: in vitro benzodiazepine receptor binding assay (inhibition of specific binding of 2 nM tritiated diazepam). Particulars: membranes from rat fore-brain, 0°-5°, 30 minutes, pH7.5. As for the experimental part: The benzodiazepine receptor binding properties indicative of the nervous system regulatory activity of said new compounds are determined in the receptor binding assay in vitro, e.g. as described in Nature 266, 732 (1977) or Proc. Nat. Acad. Sci. USA 74, 3805 (1977). Diazepam binds specifically and with high affinity to crude synaptosomal membrane preparations from rat fore-brain. This binding is inhibited by other anxiolytic compounds. When tritiated diazepem is used, the interaction of other drugs with said receptor can be readily assessed thus: membranes from rat fore-brain are incubated at 0°-5° for 30 minutes with 2 nM tritiated diazepam and various concentrations of the test substance in a buffer medium maintained at pH7.5. Solutions of the various concentrations of test substances are prepared by dilution of a 4.2 mM stock solution in dimethylacetamide-ethanol (1:10) with 50 mM pH7.5 Tris-HCl buffer. The membranes, containing the receptors with various amounts of tritiated diazepam, are filtered onto glass fiber filters, which are then analyzed in a liquid scintillation counter. The concentration of the compounds of this invention, required to inhibit the specific binding of 2 nM of tritiated diazepam by 50%, i.e. the IC50, is determined graphically.

The test system of test [2] is benzodiazepine receptor. Nature of the test: in vivo benzodiazepine receptor binding (3H-flunitrazepam). Set-up: species or system mice or rats. Particulars: dose of about 30 mg/kg i.p. The protocol: In vivo benzodiazepine receptor binding is determined essentially as described in Eur. J. Pharmacol. 48, 213 (1978) and Nature 275, 551 (1978).
Test compounds in a corn starch vehicle are administered orally or intraperitioneally to mice or rats. Thirty minutes later, 3H-flunitrazepam(2 nmoles/Kg in saline) is injected into the tail vein, and the animals are sacrificed 20 minutes after injection of the flunitrazepam. The brains are then assayed by determining radioactivity in a liquid scintillation counter for binding of the radioligand to the receptors. A decrease in the binding of 3H-flimotrazepam in the drug-treated animals (as compared with the binding observed in animals treated with vehicle alone) is indicative of benzodiazepine receptor binding by the test compound.

The structures appear in SMILES notation.

One may read the IC50 as the midpoint of a concentration-inhibition curve. Lower therefore signals greater potency. As to `O=c1c2c[nH]c3ccccc3c-2nn1-c1ncccn1` [Example 1, 2-(2-pyrimidyl)-pyrazolo[4,3-c]quinolin-3(5H)-one], the IC50 at benzodiazepine receptor [1] was ~6 nM.

For `O=c1c2c[nH]c3ccc(F)cc3c-2nn1-c1ncccn1` [Example 2, 8-fluoro-2-(2-pyrimidyl)-pyrazolo[4,3-c]quinolin-3(5H)-one], the IC50 at benzodiazepine receptor [1] was ~2 nM.

In the case of `O=c1c2c[nH]c3ccccc3c-2nn1-c1nccs1` [Example 4, 2-(2-thiazolyl)-pyrazolo[4,3-c]quinolin-3(5H)-one], the IC50 on benzodiazepine receptor [1] was ~0.3 nM. The “inhibition of flunitrazepam binding in vivo” value in the test with benzodiazepine receptor [2] is listed as “inhibits flunitrazepam binding in vivo”.
